Measurements from patent publication US11970498B2, “CDK2 inhibitors” (BLUEPRINT MEDICINES CORPORATION, priority 2021, dated 2024).

Tests used:
CDK1/Cyclin B1, GST-tag = biological target: T1, CDK1/Cyclin B1, GST-tag (Homo sapiens, UniProt P06493); assay: CDK1/Cyclin B1 biochemical phosphorylation assay (Caliper mobility shift); details: apparent IC50; 1.0 mM ATP or ATP Km; 1.5 nM enzyme; 25° C.
T1 construct: GST
Description: (§1) Inhibitory effects of the compounds of the disclosure were measured in biochemical assays that measure the enzymatic phosphorylation activity of CDK enzyme in complex of Cyclin proteins phosphorylates 7.5 micromolar fluorescently labelled peptide substrate, 5-FAM-QSPKKG-CONH2, (FL-Peptide 18, Perkin Elmer, 760362) in the presence of adenosine-5′-triphosphate (ATP) and varying concentrations of the test compound in 100 mM 2-[4-(2-hydroxyethyl)piperazin-1-yl] ethanesulfonic acid (HEPES), pH 7.5, 10 mM MgCl2, 0.015% Brij-35, 1 mM dithiothreitol (DTT), 1.0% dimethylsulfoxide (DMSO). Assays were performed at 1.0 mM ATP or at ATP Km of the CDK enzymes in complex with Cyclin proteins. Reactions proceeded until between 10% to 20% total peptides were phosphorylated at room temperature (25° C.) and were terminated with 35 mM 2,2′,2″,2′″-(ethane-1,2-diyldinitrilo)tetraacetic acid (EDTA). Product was detected using the Caliper mobility shift detection method where the phosphorylated peptide (product) and substrate were electrophoretically separated and measured. Percent activity was plotted against log concentration of compound and points to generate an apparent IC50. The following CDK enzymes in complex with different cyclin proteins were used in these assays: • CDK1/Cyclin B1, GST-tag (BPS, 40454), 1.5 nM used in the assay • CDK2/Cyclin E (Eurofins, 14-475), 1.25 nM used in the assays
(§2) For inhibitory activity against CDK2/Cyclin E mutant, the following designations are used: ≤10 nM=A; >10-20 nM=B; >20-30 nM=C; >30-100 nM=D and >100=E. For inhibition CDK1/Cyclin B1, GST-tag: ≥500 nM=A; <100-500 nM=B; <100 nM=C.

CDK2/Cyclin E = CDK2/Cyclin E (Homo sapiens, UniProt P24941); assay: CDK2/Cyclin E biochemical phosphorylation assay (Caliper mobility shift); details: apparent IC50; 1.0 mM ATP or ATP Km; 1.25 nM enzyme; 25° C.; read-out: CDK2/cyclin E1 IC50
Description: as §1, §2

T1 sequence (P06493 whole entry): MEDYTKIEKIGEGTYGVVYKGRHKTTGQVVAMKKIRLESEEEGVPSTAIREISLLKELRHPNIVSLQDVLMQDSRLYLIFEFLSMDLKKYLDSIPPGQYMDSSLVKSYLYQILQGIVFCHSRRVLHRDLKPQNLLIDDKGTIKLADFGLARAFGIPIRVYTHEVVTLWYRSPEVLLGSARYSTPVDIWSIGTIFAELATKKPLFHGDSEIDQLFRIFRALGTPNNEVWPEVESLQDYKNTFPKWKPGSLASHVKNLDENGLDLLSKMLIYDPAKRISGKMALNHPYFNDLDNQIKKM
T1 sequence (P14635 whole entry partner): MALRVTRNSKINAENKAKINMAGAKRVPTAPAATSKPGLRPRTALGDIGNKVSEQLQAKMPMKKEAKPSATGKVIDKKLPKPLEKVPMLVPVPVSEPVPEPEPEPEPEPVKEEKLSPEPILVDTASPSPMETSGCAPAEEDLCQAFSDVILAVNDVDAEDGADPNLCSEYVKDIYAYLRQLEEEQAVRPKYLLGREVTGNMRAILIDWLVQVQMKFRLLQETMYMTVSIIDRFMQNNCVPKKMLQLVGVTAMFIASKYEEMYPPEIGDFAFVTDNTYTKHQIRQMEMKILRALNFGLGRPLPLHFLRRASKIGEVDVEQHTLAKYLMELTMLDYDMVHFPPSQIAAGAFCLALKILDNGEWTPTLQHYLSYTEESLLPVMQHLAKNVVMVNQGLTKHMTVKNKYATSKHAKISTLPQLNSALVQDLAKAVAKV

Compound	IC50 (CDK1/Cyclin B1, GST-tag) [nM]	IC50 (CDK2/Cyclin E) [nM]
C[C@@H](c1ccc(F)nc1)n1ncc2ncc(Nc3cc(OC(F)F)[nH]n3)nc21 (single isomer, unassigned) [Example 151, (S)-N-(5-(difluoromethoxy)-1H-pyrazol-3-yl)-1-(1-(6-fluoropyridin-3-yl)ethyl)-1H-pyrazolo[3,4-b]pyrazin-6-amine or (R)-N-(5-(difluoromethoxy)-1H-pyrazol-3-yl)-1-(1-(6-fluoropyridin-3-yl)ethyl)-1H-pyrazolo[3,4-b]pyrazin-6-amine]	≥ 500	≤ 10
C[C@@H](c1ccc(F)nc1)n1ncc2ncc(Nc3cc(OC(F)F)[nH]n3)nc21 (single isomer, unassigned) [Example 152, (R)-N-(5-(difluoromethoxy)-1H-pyrazol-3-yl)-1-(1-(6-fluoropyridin-3-yl)ethyl)-1H-pyrazolo[3,4-b]pyrazin-6-amine or (S)-N-(5-(difluoromethoxy)-1H-pyrazol-3-yl)-1-(1-(6-fluoropyridin-3-yl)ethyl)-1H-pyrazolo[3,4-b]pyrazin-6-amine]	≥ 500	20 to 30
C[C@@H](c1cncc(F)c1)n1ncc2ncc(Nc3cc(OC(F)F)[nH]n3)nc21 (single isomer, unassigned) [Example 153, (S)-N-(5-(difluoromethoxy)-1H-pyrazol-3-yl)-1-(1-(5-fluoropyridin-3-yl)ethyl)-1H-pyrazolo[3,4-b]pyrazin-6-amine or (R)-N-(5-(difluoromethoxy)-1H-pyrazol-3-yl)-1-(1-(5-fluoropyridin-3-yl)ethyl)-1H-pyrazolo[3,4-b]pyrazin-6-amine]	≥ 500	10 to 20
C[C@@H](c1cncc(F)c1)n1ncc2ncc(Nc3cc(OC(F)F)[nH]n3)nc21 (single isomer, unassigned) [Example 154, (R)-N-(5-(difluoromethoxy)-1H-pyrazol-3-yl)-1-(1-(5-fluoropyridin-3-yl)ethyl)-1H-pyrazolo[3,4-b]pyrazin-6-amine or (S)-N-(5-(difluoromethoxy)-1H-pyrazol-3-yl)-1-(1-(5-fluoropyridin-3-yl)ethyl)-1H-pyrazolo[3,4-b]pyrazin-6-amine]	≥ 500	20 to 30
FC(F)Oc1cc(Nc2cnc3cnn([C@H](C4CCOCC4)C4CC4)c3n2)n[nH]1 (single isomer, unassigned) [Example 157, (S)-1-(cyclopropyl(tetrahydro-2H-pyran-4-yl)methyl)-N-(5-(difluoromethoxy)-1H-pyrazol-3-yl)-1H-pyrazolo[3,4-b]pyrazin-6-amine or (R)-1-(cyclopropyl(tetrahydro-2H-pyran-4-yl)methyl)-N-(5-(difluoromethoxy)-1H-pyrazol-3-yl)-1H-pyrazolo[3,4-b]pyrazin-6-amine]	≥ 500	30 to 100
FC(F)Oc1cc(Nc2cnc3cnn([C@H](c4ccccc4)C4COC4)c3n2)n[nH]1 (single isomer, unassigned) [Example 162, (R)-N-(5-(difluoromethoxy)-1H-pyrazol-3-yl)-1-(oxetan-3-yl(phenyl)methyl)-1H-pyrazolo[3,4-b]pyrazin-6-amine or (S)-N-(5-(difluoromethoxy)-1H-pyrazol-3-yl)-1-(oxetan-3-yl(phenyl)methyl)-1H-pyrazolo[3,4-b]pyrazin-6-amine]	≥ 500	> 100
FC(F)Oc1cc(Nc2cnc3cnn(C[C@@H]4CC4(F)F)c3n2)n[nH]1 (single isomer, unassigned) [Example 163, (S)-1-((2,2-difluorocyclopropyl)methyl)-N-(5-(difluoromethoxy)-1H-pyrazol-3-yl)-1H-pyrazolo[3,4-b]pyrazin-6-amine or (R)-1-((2,2-difluorocyclopropyl)methyl)-N-(5-(difluoromethoxy)-1H-pyrazol-3-yl)-1H-pyrazolo[3,4-b]pyrazin-6-amine]	≥ 500	≤ 10
C[C@]1(Cn2ncc3ncc(Nc4cc(OC(F)F)[nH]n4)nc32)CCOC1 (single isomer, unassigned) [Example 166, (S)-N-(5-(difluoromethoxy)-1H-pyrazol-3-yl)-1-((3-methyltetrahydrofuran-3-yl)methyl)-1H-pyrazolo[3,4-b]pyrazin-6-amine or (R)-N-(5-(difluoromethoxy)-1H-pyrazol-3-yl)-1-((3-methyltetrahydrofuran-3-yl)methyl)-1H-pyrazolo[3,4-b]pyrazin-6-amine]	100 to 500	≤ 10

Next, values leading:

IC50 (CDK1/Cyclin B1, GST-tag) [nM]	IC50 (CDK2/Cyclin E) [nM]	Compound
≥ 500	30 to 100	C[C@H](c1cccc(F)n1)n1ncc2ncc(Nc3cc(OC(F)F)[nH]n3)nc21 (single isomer, unassigned) [Example 155, (R)-N-(5-(difluoromethoxy)-1H-pyrazol-3-yl)-1-(1-(6-fluoropyridin-2-yl)ethyl)-1H-pyrazolo[3,4-b]pyrazin-6-amine or (S)-N-(5-(difluoromethoxy)-1H-pyrazol-3-yl)-1-(1-(6-fluoropyridin-2-yl)ethyl)-1H-pyrazolo[3,4-b]pyrazin-6-amine]
≥ 500	≤ 10	C[C@H](c1cccc(F)n1)n1ncc2ncc(Nc3cc(OC(F)F)[nH]n3)nc21 (single isomer, unassigned) [Example 156, (S)-N-(5-(difluoromethoxy)-1H-pyrazol-3-yl)-1-(1-(6-fluoropyridin-2-yl)ethyl)-1H-pyrazolo[3,4-b]pyrazin-6-amine or (R)-N-(5-(difluoromethoxy)-1H-pyrazol-3-yl)-1-(1-(6-fluoropyridin-2-yl)ethyl)-1H-pyrazolo[3,4-b]pyrazin-6-amine]
≥ 500	30 to 100	FC(F)Oc1cc(Nc2cnc3cnn([C@H](C4CCOCC4)C4CC4)c3n2)n[nH]1 (single isomer, unassigned) [Example 158, (R)-1-(cyclopropyl(tetrahydro-2H-pyran-4-yl)methyl)-N-(5-(difluoromethoxy)-1H-pyrazol-3-yl)-1H-pyrazolo[3,4-b]pyrazin-6-amine or (S)-1-(cyclopropyl(tetrahydro-2H-pyran-4-yl)methyl)-N-(5-(difluoromethoxy)-1H-pyrazol-3-yl)-1H-pyrazolo[3,4-b]pyrazin-6-amine]
≥ 500	≤ 10	FC(F)Oc1cc(Nc2cnc3cnn(C[C@H]4C[C@@H]4F)c3n2)n[nH]1 (single isomer, unassigned) [Example 159, N-(5-(difluoromethoxy)-1H-pyrazol-3-yl)-1-(((1R,2S)-2-fluorocyclopropyl)methyl)-1H-pyrazolo[3,4-b]pyrazin-6-amine or N-(5-(difluoromethoxy)-1H-pyrazol-3-yl)-1-(((1S,2R)-2-fluorocyclopropyl)methyl)-1H-pyrazolo[3,4-b]pyrazin-6-amine]
≥ 500	20 to 30	FC(F)Oc1cc(Nc2cnc3cnn(C[C@H]4C[C@@H]4F)c3n2)n[nH]1 (single isomer, unassigned) [Example 160, N-(5-(difluoromethoxy)-1H-pyrazol-3-yl)-1-(((1S,2R)-2-fluorocyclopropyl)methyl)-1H-pyrazolo[3,4-b]pyrazin-6-amine or N-(5-(difluoromethoxy)-1H-pyrazol-3-yl)-1-(((1R,2S)-2-fluorocyclopropyl)methyl)-1H-pyrazolo[3,4-b]pyrazin-6-amine]
≥ 500	30 to 100	FC(F)Oc1cc(Nc2cnc3cnn([C@H](c4ccccc4)C4COC4)c3n2)n[nH]1 (single isomer, unassigned) [Example 161, (S)-N-(5-(difluoromethoxy)-1H-pyrazol-3-yl)-1-(oxetan-3-yl(phenyl)methyl)-1H-pyrazolo[3,4-b]pyrazin-6-amine or (R)-N-(5-(difluoromethoxy)-1H-pyrazol-3-yl)-1-(oxetan-3-yl(phenyl)methyl)-1H-pyrazolo[3,4-b]pyrazin-6-amine]
≥ 500	10 to 20	FC(F)Oc1cc(Nc2cnc3cnn(C[C@@H]4CC4(F)F)c3n2)n[nH]1 (single isomer, unassigned) [Example 164, (R)-1-((2,2-difluorocyclopropyl)methyl)-N-(5-(difluoromethoxy)-1H-pyrazol-3-yl)-1H-pyrazolo[3,4-b]pyrazin-6-amine or (S)-1-((2,2-difluorocyclopropyl)methyl)-N-(5-(difluoromethoxy)-1H-pyrazol-3-yl)-1H-pyrazolo[3,4-b]pyrazin-6-amine]
≥ 500	30 to 100	C[C@]1(Cn2ncc3ncc(Nc4cc(OC(F)F)[nH]n4)nc32)CCOC1 (single isomer, unassigned) [Example 165, (R)-N-(5-(difluoromethoxy)-1H-pyrazol-3-yl)-1-((3-methyltetrahydrofuran-3-yl)methyl)-1H-pyrazolo[3,4-b]pyrazin-6-amine or (S)-N-(5-(difluoromethoxy)-1H-pyrazol-3-yl)-1-((3-methyltetrahydrofuran-3-yl)methyl)-1H-pyrazolo[3,4-b]pyrazin-6-amine]
